Patent US9884874B2, “Bromodomain-inhibiting compounds and pharmaceutical composition comprising same for preventing or treating a cancer” (KAINOS MEDICINE, INC., priority 2014, dated 2018)

Assays:
[1] = Mouse liver microsomal stability/clearance; assay type: in vitro ADME
Protocol: (§1) Human and mouse liver microsomal clearance assays were carried out in CROWN Biosciences (Taicang, China). The human liver microsomes (Cat No. X008067, Lot No. KQB) and mouse liver microsomes (Cat No. M1000, Lot No. 1210302) were purchased from Celsis and Xenotech, respectively.
(§2) 5 μL of test compound stock solution was diluted with 495 μL of 1:1 Methanol/Water (final concentration: 100 μM, 50% MeOH) and combined with 534 μL of the respective liver microsome solution (final concentration: 1.111 μM, 0.555% MeOH). The final concentration of the liver microsome solution was 0.7 mg protein/mL.
(§3) Incubations of the liver microsome solutions were performed in a 96 well plate at 37° C. 90 μL of the liver microsome solutions were added to Blank, and 90 μL of working solution of the test compound was added to all plates except the Blank.
(§4) All plates thus obtained were warmed in water bath at 37° C. for 10 min, and 10 μL of NADPH co-factor solution comprising 42 mg of β-nicotinamide adenine dinucleotide phosphate (Sigma Cat. No. N0505 Lot 020M7009V), 84 mg of isocitric acid (Sigma Cat. No. 11252 Lot 119K1099) and 0.478 mL of isocitric dehydrogenase (Sigma Cat. No. 12002 Lot 086K7055, 15 units/mg protein, warmed in water bath at 37° C. for 5 min was added to the plates. The resulting plates were incubated at 37° C. in the following order: T60 (The test compounds were incubated with the liver microsomal solution and NADPH for 60 min at 37° C.), T30 (such as for 30 min.), and T10 (such as for 10 min.). 300 μL of a cold (4° C.) stop solution (acetonitrile (ACN) including 500 nM of tolbutamide as internal standard) and 10 μL of NADPH co-factor solution to starting plate (T0: 100% of the parent compound without any reaction) were added to the plates. The reaction was stopped by adding 300 μL of the cold (4° C.) stop solution to the other plates in the following order: T10 first, then T30 and T60.
(§5) The samples were centrifuged at 4,000 rpm for 20 min and transferred to Bioanalytical Services for liquid chromatography-mass spectrometry (LC-MS)/MS (Waters UPLC/API 4000, 10 μL injection) analysis.

human BRD4 bromodomain 1 = human BRD4 bromodomain 1 (Homo sapiens (Human), UniProt O60885); assay: Bromodomain binding assay (BRD4 Alpha-screen); conditions: acetylated histone H4 peptide
Protocol: Bromodomain binding assays were carried out in Reaction Biology (PA, USA) to test the degrees of the inventive compounds in inhibiting the human BRD4 bromodomain 1 by Alpha-screen assay method.
Recombinant human BRD4 bromodomain 1 expressed in E. coli with N-terminal His-tag was used as the enzyme target.
A synthetic peptide ([…]-GSGSK-biotin) containing 1 to 21th amino acids of histone H4 acetylated at lysine 5, 8, 12 and 16 and conjugated to biotin was purchased from Millipore.
BRD4-1 (44 to 170th amino acids; Genbank Accession # NM_058243) was expressed in E. coli with N-terminal His-tag (see, Ni-NTA spin Kit Handbook (Qiagen), second edition, January, 2008). Nickel-Chelate ALPHA acceptor beads (Perkin Elmer) were used to specifically bind BRD4-1, and ALPHA streptavidin donor beads (Perkin Elmer) were used because they specifically recognized the biotinylated H4 peptide.
BRD binding assays were performed in a mixture comprising 50 mM Hepes (pH7.5), 100 mM NaCl, 0.05% CHAPS, 0.1% BSA, and 1% DMSO. After an assay reaction time of 60 min at 25° C., binding was measured with streptavidin donor beads and nickel-chelate acceptor beads. ALPHA signal was detected on Enspire (Ex/Em=680/520-620 nm). IC50 values were calculated from the fit of the dose-response curves. All IC50 values represent geometric mean values of a minimum of four determinations. These assays generally produced results within 3-fold of the reported mean.

[2] = Human liver microsomal stability/clearance; assay type: in vitro ADME
Protocol: as §1, §2, §3, §4, §5

[3] = test system: MV4-11 (human leukemia cell line); assay: Anti-proliferative activity test (CellTiter-Glo), MV4-11; assay type: cell-based; conditions: second value of LnCAP/MV4-11 cell, read-out: Cell proliferation IC50 (MV4-11)
Protocol: (§6) IC50 (uM) of the compounds obtained in Examples 1 to 18 against hematological cancer cells and solid tumors was measured for identifying anti-proliferative activities.
(§7) A human prostatic adenocarcinoma cell line, LnCAP (ATCC®, CRL-1740) and human leukemia cell line MV4-11 (ATCC®, CRL-9591) were used to test the degrees of the compounds 1 to 18 in inhibiting the cancer cell growth. The testing cell concentration was adjusted to 6.7×10^3 cells/ml with a culture medium supplemented with 10% FBS, in the temperature of 37° C., 5% CO2 and 95% humidity. Culture media and FBS were purchased from GIBCO. 90 μL of cell suspensions thus obtained was added to two 96-well plates with the final cell density of 600 cells/well, followed by addition of 10 μL of culture medium to each well of plate. The plates were incubated overnight in a humidified incubator at 37° C. with 5% CO2.
(§8) Compounds 1 to 18 were each dissolved with dimethylsulfoxide (DMSO) or phosphate buffer solution (PBS) as a stock solution, and 200× solutions of test compound (2 mM) using DMSO were prepared. Then, the DMSO solution thus obtained was diluted 20-fold with culture medium or PBS to obtain 10× working solution. 10 μL of 10× working solution (drug solution) was dispensed to each well (triplicate for each concentration). The final concentration of DMSO in culture medium was 0.5% [v/v].
(§9) Cell viability was determined using CellTiter-Glo® (CTG) assay. 100 μL of CellTiter-Glo® was added to the equal volume of the cultured cells to read luminescence in EnVision Multi Label Reader.

[4] = test system: LnCAP (human prostatic adenocarcinoma cell line); assay: Anti-proliferative activity test (CellTiter-Glo), LnCAP; assay type: cell-based; conditions: first value of LnCAP/MV4-11 cell, read-out: Cell proliferation IC50 (LnCAP)
Protocol: as §6, §7, §8, §9

[5] = mouse liver microsomes, second value of Human/Mouse cell, read-out: Liver microsomal clearance (Mouse)
[6] = human liver microsomes, first value of Human/Mouse cell, read-out: Liver microsomal clearance (Human)

SMILES | microsomal CLint at 1 µM [1, 5] | IC50 (human BRD4 bromodomain 1) | microsomal CLint at 1 µM [2, 6] | IC50 [3] | IC50 [4] | microsomal CLint at 1 µM ([1]; mouse, microsomes) | microsomal CLint at 1 µM ([2]; human, microsomes)
CCCS(=O)(=O)OC[C@@H]1N=C(c2ccc(Cl)cc2)c2cc(OC)ccc2-n2c(C)nnc21 [Compound 3, (R)-(6-(4-chlorophenyl)-8-methoxy-1-methyl-4H-benzo[f][1,2,4]triazolo[4,3-a][1,4]diazepin-4-yl)methyl propane-1-sulfonate] | 39.7 µL/min/mg | 390 nM | 71.3 µL/min/mg | 1810 nM | 830 nM |  | 
COc1ccc2c(c1)C(c1ccc(Cl)cc1)=N[C@@H](COS(=O)(=O)C1CC1)c1nnc(C)n1-2 [Compound 4, (R)-(6-(4-chlorophenyl)-8-methoxy-1-methyl-4H-benzo[f][1,2,4]triazolo[4,3-a][1,4]diazepin-4-yl)methyl cyclopropanesulfonate] | 8.9 µL/min/mg | 420 nM | 6.3 µL/min/mg | 690 nM | 130 nM |  | 
COc1ccc2c(c1)C(c1ccc(Cl)cc1)=N[C@@H](COS(=O)(=O)c1ccccc1)c1nnc(C)n1-2 [Compound 5, (R)-(6-(4-chlorophenyl)-8-methoxy-1-methyl-4H-benzo[f][1,2,4]triazolo[4,3-a][1,4]diazepin-4-yl)methyl benzenesulfonate] |  | 900 nM |  |  |  |  | 
Cc1nnc2n1-c1ccccc1C(c1ccc(Cl)cc1)=N[C@H]2COS(C)(=O)=O [Compound 6, (R)-(6-(4-chlorophenyl)-1-methyl-4H-benzo[f][1,2,4]triazolo[4,3-a][1,4]diazepin-4-yl)methyl methanesulfonate] |  | 1410 nM |  |  |  |  | 
COc1ccc2c(c1)C(c1ccc(Cl)cc1)=N[C@@H](COS(=O)(=O)N(C)C)c1nnc(C)n1-2 [Compound 9, (R)-(6-(4-chlorophenyl)-8-methoxy-1-methyl-4H-benzo[f][1,2,4]triazolo[4,3-a][1,4]diazepin-4-yl)methyl dimethylsulfamate] | 86 µL/min/mg | 280 nM | 126 µL/min/mg | 1490 nM | 1900 nM |  | 
CNS(=O)(=O)OC[C@@H]1N=C(c2ccc(Cl)cc2)c2cc(OC)ccc2-n2c(C)nnc21 [Compound 10, (R)-(6-(4-chlorophenyl)-8-methoxy-1-methyl-4H-benzo[f][1,2,4]triazolo[4,3-a][1,4]diazepin-4-yl)methyl methylsulfamate] | 21 µL/min/mg | 400 nM | 29 µL/min/mg | 350 nM | 570 nM |  | 
Cc1nnc2n1-c1ccc(-c3cnn(CC(N)=O)c3)cc1C(c1ccc(Cl)cc1)=N[C@H]2COS(C)(=O)=O [Compound 12, (R)-(8-(1-(2-amino-2-oxoethyl)-1H-pyrazol-4-yl)-6-(4-chlorophenyl)-1-methyl-4H-benzo[f][1,2,4]triazolo[4,3-a][1,4]diazepin-4-yl)methyl methanesulfonate] | 6.9 µL/min/mg | 110 nM | 5.6 µL/min/mg | 1070 nM | 44000 nM |  | 
Cc1nnc2n1-c1ccc(-c3cnn(CC(=O)N(C)C)c3)cc1C(c1ccc(Cl)cc1)=N[C@H]2COS(C)(=O)=O [Compound 13, (R)-(6-(4-chlorophenyl)-8-(1-(2-(dimethylamino)-2-oxoethyl)-1H-pyrazol-4-yl)-1-methyl-4H-benzo[f][1,2,4]triazolo[4,3-a][1,4]diazepin-4-yl)methyl methanesulfonate] | 7.4 µL/min/mg | 110 nM | 12.3 µL/min/mg | 290 nM | 430 nM |  | 
Cc1nnc2n1-c1ccc(C(=O)NCCO)cc1C(c1ccc(Cl)cc1)=N[C@H]2COS(C)(=O)=O [Compound 14, (R)-(6-(4-chlorophenyl)-8-((2-hydroxyethyl)carbamoyl)-1-methyl-4H-benzo[f][1,2,4]triazolo[4,3-a][1,4]diazepin-4-yl)methyl methanesulfonate] | 6.3 µL/min/mg | 380 nM | 8.3 µL/min/mg |  |  |  | 
Cc1sc2c(c1C)C(c1ccc(Cl)cc1)=N[C@@H](COS(N)(=O)=O)c1nnc(C)n1-2 [Compound 16, (R)-(4-(4-chlorophenyl)-2,3,9-trimethyl-6H-thieno[3,2-f][1,2,4]triazolo[4,3-a][1,4]diazepin-6-yl)methyl sulfamate] |  | 250 nM |  |  |  | 9 µL/min/mg | 10 µL/min/mg
Cc1sc2c(c1C)C(c1ccc(Cl)cc1)=N[C@@H](COS(=O)(=O)N(C)C)c1nnc(C)n1-2 [Compound 17, (R)-(4-(4-chlorophenyl)-2,3,9-trimethyl-6H-thieno[3,2-f][1,2,4]triazolo[4,3-a][1,4]diazepin-6-yl)methyl dimethylsulfamate] |  | 900 nM |  |  |  | 138 µL/min/mg | 171 µL/min/mg
CNS(=O)(=O)OC[C@@H]1N=C(c2ccc(Cl)cc2)c2c(sc(C)c2C)-n2c(C)nnc21 [Compound 18, (R)-(4-(4-chlorophenyl)-2,3,9-trimethyl-6H-thieno[3,2-f][1,2,4]triazolo[4,3-a][1,4]diazepin-6-yl)methyl methylsulfamate] |  | 160 nM |  |  |  | 49 µL/min/mg | 51 µL/min/mg
